This data set in a line: log P (HPLC/MS data of the preparation examples). Particulars: for log p: linear gradient 10% to 95% acetonitrile.
Setting [1] is: method [b]: LC-MS at pH 2.7, 0.1% formic acid in water / acetonitrile.
[2] abbreviates: LC-MS, method [b]: pH 2.7 with 0.1% formic acid in water and acetonitrile.

Take `COc1ccc(CC(=O)Nc2cccc(CON=C(c3ccccc3)c3nccn3C)n2)cc1` [Example 266]: the log p under setting [1] is 2.33^[b].

For the molecule `COc1cccc(CC(=O)Nc2cccc(CON=C(c3ccccc3)c3nccn3C)n2)c1` [Example 267], the log p under setting [1] was 2.37^[b].

Regarding `COc1ccccc1CC(=O)Nc1cccc(CON=C(c2ccccc2)c2nccn2C)n1` [Example 268], under setting [1], the log p is 2.47^[b].

On to `Cn1ccnc1C(=NOCc1cccc(NC(=O)Cc2ccccc2F)n1)c1ccccc1` [Example 269], for which the log p under setting [1] is 2.4^[b].

In the case of `COCCC(=O)Nc1cccc(CON=C(c2ccccc2)c2nccn2C)n1` [Example 270], under setting [1], the log p was 4.53^[b].

Regarding `CSCCC(=O)Nc1cccc(CON=C(c2ccccc2)c2nccn2C)n1` [Example 271], the log p under setting [1] was 1.9^[b].

Consider `Cn1ccnc1C(=NOCc1cccc(NC(=O)OCCF)n1)c1ccccc1` [Example 272], for which the log p under setting [1] was 1.81^[b].

For `COc1ccc(CC(=O)Nc2cccc(CON=C(c3cccc(F)c3)c3nccn3C)n2)cc1` [Example 273], the log p under setting [1] was 2.54^[b].

On to `COc1cccc(CC(=O)Nc2cccc(CON=C(c3cccc(F)c3)c3nccn3C)n2)c1` [Example 274], for which the log p under setting [1] was 2.58^[b].

With `COc1ccccc1CC(=O)Nc1cccc(CON=C(c2cccc(F)c2)c2nccn2C)n1` [Example 275], the log p under setting [1] was 2.66^[b].

For the molecule `Cn1ccnc1C(=NOCc1cccc(NC(=O)Cc2ccccc2F)n1)c1cccc(F)c1` [Example 276], the log p under setting [1] is 2.59^[b].

As for `COCCC(=O)Nc1cccc(CON=C(c2cccc(F)c2)c2nccn2C)n1` [Example 277], the log p under setting [1] is 1.69^[b].

Take `CC(C(=O)Nc1cccc(CON=C(c2cccc(F)c2)c2nccn2C)n1)c1ccccc1` (centres unmarked) [Example 278]: the log p under setting [1] is 2.92^[b].

For `Cc1cc(C(F)(F)F)nn1CC(=O)Nc1cccc(CON=C(c2ccccc2)c2nccn2C)n1` [Example 279], under setting [2], the log p was 2.61^[b].

With `Cn1ccnc1C(=NOCc1cccc(NC(=O)COc2ccccc2)n1)c1ccccc1` [Example 280], under setting [2], the log p is 2.58^[b].

As for `Cn1ccnc1C(=NOCc1cccc(NC(=O)CCC2CCCC2)n1)c1ccccc1` [Example 281], the log p under setting [2] is 3.19^[b].

Consider `Cn1ccnc1C(=NOCc1cccc(NC(=O)CCC2CCCCC2)n1)c1ccccc1` [Example 282], for which the log p under setting [2] is 3.67^[b].

As to `Cn1ccnc1C(=NOCc1cccc(NC(=O)CSc2ccccc2)n1)c1ccccc1` [Example 283], under setting [2], the log p is 2.63^[b].

In the case of `Cn1ccnc1C(=NOCc1cccc(NC(=O)CCC2CCCC2)n1)c1cccc(F)c1` [Example 284], the log p under setting [2] is 3.44^[b].

With `Cn1ccnc1C(=NOCc1cccc(NC(=O)CCC2CCCCC2)n1)c1cccc(F)c1` [Example 285], the log p under setting [2] is 3.92^[b].

On to `Cn1ccnc1C(=NOCc1cccc(NC(=O)CSc2ccccc2)n1)c1cccc(F)c1` [Example 286], for which the log p under setting [2] is 2.82^[b].

For the molecule `CSCCC(=O)Nc1cccc(CON=C(c2cccc(F)c2)c2nccn2C)n1` [Example 287], the log p under setting [2] is 2.07^[b].

For the molecule `CCC(C)CC(=O)Nc1cccc(CON=C(c2cccc(F)c2)c2nccn2C)n1` (centres unmarked) [Example 288], the log p under setting [2] was 2.77^[b].

On to `CCCC(C)C(=O)Nc1cccc(CON=C(c2cccc(F)c2)c2nccn2C)n1` (centres unmarked) [Example 289], for which the log p under setting [2] was 2.77^[b].

Consider `Cn1ccnc1C(=NOCc1cccc(NC(=O)Cc2cccs2)n1)c1cccc(F)c1` [Example 290], for which the log p under setting [2] is 2.44^[b].

In the case of `Cn1ccnc1C(=NOCc1cccc(NC(=O)Cc2ccccc2Cl)n1)c1cccc(F)c1` [Example 291], the log p under setting [2] was 2.8^[b].

With `Cc1cc(C(F)(F)F)nn1CC(=O)Nc1cccc(CON=C(c2cccc(F)c2)c2nccn2C)n1` [Example 292], the log p under setting [2] was 2.8^[b].

For `Cn1ccnc1C(=NOCc1cccc(NC(=O)COc2ccccc2)n1)c1cccc(F)c1` [Example 293], the log p under setting [2] was 2.63^[b].

In the case of `Cn1ncnc1C(=NOCc1cccc(NC(=O)Cc2ccc(F)cc2)n1)c1ccccc1` [Example 294], the log p under setting [2] is 3.15^[b].

As to `Cn1ncnc1C(=NOCc1cccc(NC(=O)CCc2ccc(Cl)s2)n1)c1ccccc1` [Example 295], under setting [2], the log p was 3.74^[b].

Turning to `Cn1ncnc1C(=NOCc1cccc(NC(=O)CCc2cc(Cl)cc(Cl)c2)n1)c1ccccc1` [Example 296], the log p under setting [2] is 4.29^[b].

For the molecule `COc1ccc(CCC(=O)Nc2cccc(CON=C(c3ccccc3)c3ncnn3C)n2)cc1` [Example 297], under setting [2], the log p is 3.25^[b].

Regarding `COc1cccc(CCC(=O)Nc2cccc(CON=C(c3ccccc3)c3ncnn3C)n2)c1` [Example 298], the log p under setting [2] is 3.25^[b].

As for `COc1ccccc1CCC(=O)Nc1cccc(CON=C(c2ccccc2)c2ncnn2C)n1` [Example 299], under setting [2], the log p is 3.44^[b].

For the molecule `Cn1ncnc1C(=NOCc1cccc(NC(=O)CCc2ccc(Cl)cc2)n1)c1ccccc1` [Example 300], the log p under setting [2] was 3.72^[b].

For `Cn1ncnc1C(=NOCc1cccc(NC(=O)CCc2ccccc2Cl)n1)c1ccccc1` [Example 301], the log p under setting [2] was 3.72^[b].

Regarding `Cn1ncnc1C(=NOCc1cccc(NC(=O)CCc2ccc(C(F)(F)F)cc2)n1)c1ccccc1` [Example 302], the log p under setting [2] was 3.9^[b].

`Cn1ncnc1C(=NOCc1cccc(NC(=O)CCc2ccccc2C(F)(F)F)n1)c1ccccc1` [Example 303]: the log p under setting [2] is 3.87^[b].

As for `Cn1ncnc1C(=NOCc1cccc(NC(=O)C2CC2c2ccccc2)n1)c1ccccc1` (centres unmarked) [Example 304], the log p under setting [2] is 3.61^[b].

For the molecule `C=CCCOC(=O)Nc1cccc(CON=C(c2ccccc2)c2ncnn2C)n1` [Example 305], the log p under setting [2] was 3.21^[b].

Regarding `CC(C)CCC(=O)Nc1cccc(CON=C(c2ccccc2)c2ncnn2C)n1` [Example 306], the log p under setting [2] is 3.37^[b].

With `CCC(C)CC(=O)Nc1cccc(CON=C(c2ccccc2)c2ncnn2C)n1` (centres unmarked) [Example 307], the log p under setting [2] was 3.31^[b].

In the case of `Cn1ncnc1C(=NOCc1cccc(NC(=O)CCCCCl)n1)c1ccccc1` [Example 308], under setting [2], the log p is 2.98^[b].

Consider `C#CCCCC(=O)Nc1cccc(CON=C(c2ccccc2)c2ncnn2C)n1` [Example 309], for which the log p under setting [2] is 2.7^[b].

With `C=CCCC(=O)Nc1cccc(CON=C(c2ccccc2)c2ncnn2C)n1` [Example 310], the log p under setting [2] was 2.77^[b].

With `Cn1ncnc1C(=NOCc1cccc(NC(=O)Cc2cccs2)n1)c1ccccc1` [Example 311], the log p under setting [2] was 2.98^[b].

In general, chromatographic logP refers to lipophilicity estimated from chromatographic retention. With `Cn1c(C(=NOCc2nccc(N(C(=O)C3CC3)C(=O)C3CC3)n2)c2ccccc2)cnc1C(=O)C1CC1` [Example 312, N-(cyclopropylcarbonyl)-N-(2-{[({[2-(cyclopropylcarbonyl)-1-methyl-1H-imidazol-5-yl](phenyl)methylene}amino)oxy]methyl}pyrimidin-4-yl)cyclopropanecarboxamide], where the note is “HCOOH (formic acid)”, the chromatographic logP was 3.73.

For `Cn1ncnc1C(=NOCc1cccc(NC(=O)Cc2cccc(Cl)c2)n1)c1ccccc1` [Example 313], the log p under setting [2] is 3.5^[b].

On to `C=CCC(=O)Nc1cccc(CON=C(c2ccccc2)c2ncnn2C)n1` [Example 314], for which the log p under setting [2] was 2.51^[b].

In the case of `CC(C)COC(=O)Nc1cccc(CON=C(c2ccccc2)c2ncnn2C)n1` [Example 316], under setting [2], the log p was 3.52^[b].

The record behind these values is patent publication US8981111B2 (priority 2008, dated 2015).
